Settings: Liquid; for mass density: 101.32 kPa, Vibrating tube method; for vapor or sublimation pressure: Ebulliometric method (Recirculating still)

CCCCCCCCC [nonane]
Settings	mass density [kg/m3]	vapor or sublimation pressure [kPa]
291.15 K	719.2	–
298.15 K	713.85	–
318.15 K	698.09	–
328.15 K	690.4	–
365.3 K	–	15.58
369.25 K	–	18.07
372.81 K	–	20.58
376.46 K	–	23.49
379.71 K	–	26.35
382.25 K	–	28.78
384.65 K	–	31.22
387.02 K	–	33.8
389.45 K	–	36.62
391.8 K	–	39.52
393.48 K	–	41.74
395.26 K	–	44.15
396.96 K	–	46.56
398.71 K	–	49.15
400.61 K	–	52.12
402.01 K	–	54.42
403.31 K	–	56.55
404.73 K	–	59.01
406.27 K	–	61.77
407.78 K	–	64.58
408.93 K	–	66.76
410.11 K	–	69.09
411.32 K	–	71.53
412.52 K	–	74.01
413.68 K	–	76.48
414.83 K	–	79.03
415.9 K	–	81.41
417.22 K	–	84.44
418.24 K	–	86.85
419.28 K	–	89.41
420.5 K	–	92.43
421.62 K	–	95.25
422.83 K	–	98.4
423.2 K	–	99.35
423.61 K	–	100.44
423.94 K	–	101.32
424.92 K	–	104
425.83 K	–	106.5
426.71 K	–	108.99
427.6 K	–	111.54
428.4 K	–	113.88
429.26 K	–	116.44
430.22 K	–	119.35
431.09 K	–	122.04
432.04 K	–	124.99
432.94 K	–	127.82
433.74 K	–	130.52
434.68 K	–	133.6
435.58 K	–	136.62
436.31 K	–	139.12
437.11 K	–	141.9
437.95 K	–	144.81
438.67 K	–	147.42
439.45 K	–	150.23
440.11 K	–	152.67
440.76 K	–	155.08
441.41 K	–	157.53
442.05 K	–	159.98
442.77 K	–	162.8
443.49 K	–	165.61
444.23 K	–	168.53
444.93 K	–	171.39
445.49 K	–	173.63
446.19 K	–	176.52
446.75 K	–	178.85
447.44 K	–	181.82
448.07 K	–	184.55
448.61 K	–	186.86
449.27 K	–	189.75
449.81 K	–	192
450.56 K	–	195.54
